The text below walks through data of patent US8637050B2, “Peptide vaccines against group A streptococci” (The United States of America, as represented by the …, priority 2001, dated 2014).

No end group written: not given here.

One experiment concerns GAS. Briefly: Opsonophagocytosis assay in vitro with sera of immunized mice. Format: cell-based, Group A streptococci. The conditions noted are these: human whole blood, 3 hours. Here is the method:
(§1) Opsonophagocytosis assays were performed as previously described in Lancefield, R. C., Persistence of type-specific antibodies in man following infection with group A streptococci, 1959, J. Immunol., 89:307. Briefly, diluted serum (50 μl) was added to mid-log phase GAS (10^3 CFU) in Todd-Hewitt broth (50 μl) and whole, heparinized blood (500 μl) from a nonopsonic human donor. Mixtures were briefly vortexed and placed at 37° C. in a shaker for 3 hours. Dilutions were then plated on trypticase soy agar plates (5% sheep blood) to quantitate viable organisms. The % killing is expressed as [(CFU control-CFU test)/CFU control]×100.
Each of the sera tested positive in the assay and was able to reduce the amount of viable bacteria relative to controls.

For experiment [1], the system named is rabbit sera prepared against whole M protein. Briefly: ELISA: peptide recognition by anti-M protein rabbit sera. It is filed as binding. The conditions noted are these: for immunoreactivity of peptide with anti-M protein rabbit sera (ELISA): rabbit sera against whole M protein of the respective serotype. Here is the method:
Overlapping peptides representing each M type were assessed for their immunogenicity using ELISA and dot-immunoblot.
(§2) Levels of anti-M protein antibodies in mouse sera were determined by an enzyme-linked immunosorbent assay (ELISA) using either synthetic peptides or whole M protein as antigen. Microtiter plates (DYNEX Immulon 2 HB) were coated with 10 μg/ml antigen in 10 mM phosphate-buffered saline (PBS) at 4° C. overnight. Plates were rinsed three times with wash buffer (0.05% Tween 20 in 10 mM PBS, pH 7.2) and blocked with 1% BSA in PBS for one hour at 37° C. The appropriate test sera were applied at a starting dilution of 1:1000 and serially diluted two fold down the plate in PBS. Plates were incubated at 37° C. for 30 minutes and subsequently rinsed three times. Goat anti-rabbit or goat anti-mouse Ig-peroxidase conjugate diluted 1:10,000 in PBS was added to all wells and incubated for two hours at 37° C. Plates were rinsed three times with wash buffer and freshly prepared TMB peroxidase (Kirkegaard and Perry Laboratories) was added. Reactions were quenched with 0.18 M H2SO4 after 30 minutes at room temperature and OD450 was measured with a Labsystems Multiskan plate reader using Ascent software. ELISA titers are expressed as the reciprocal of the last dilution which gave a reading OD450>0.10.
The immunoreactivity of several synthetic peptides was determined by ELISA using rabbit sera prepared against whole M protein. The synthetic peptides are representative of relatively small portions of the M protein N-terminus; therefore, it was advantageous to determine if the epitopes contained within particular peptides were immunoreactive with sera prepared against whole M protein. It was shown that the whole anti-M protein rabbit sera of the respective serotypes could bind to each of the synthetic peptides within that serotype. However, some peptides were more highly immunoreactive than others, thus being better suited for use in the animal studies.

The subject of a further experiment is streptococci (GAS). Briefly: Nasopharyngeal colonization challenge in vaccinated mice. Format: in vivo. The following applies: vaccinated mice relative to alum-only control mice; nasal wash 24 hours after 10^4 CFU challenge. Here is the method:
(§3) Mice (6 week old female Swiss Webster, Harley-Sprague) were immunized subcutaneously (s.c.) with either the peptide in alum or alum alone for control groups. Peptides were rotated in the alum mixture for 2 hours at 4° C. and stored at 4° C. overnight prior to use.
(§4) Mice were challenged intranasally one week after the final booster injection was administered. Prior to being challenged, mice were anesthetized with a ketamine/xylazine mixture. Mice were then given 10^4-10^5 CFU (10 μl) of streptococci intranasally via a microliter pipette. They were sacrificed 24 hours after the challenge and the nasopharyngeal passages were washed with approximately 100 μl physiological saline which was collected and immediately placed on ice. Dilutions of the wash were then plated on trypticase soy agar plates (5% sheep blood) and incubated at 37° C. for 18 hours to quantitate viable organisms. Nasopharyngeal colonization in immunized mice was compared to non-immunized controls. Statistical analysis of the NP data was accomplished using the t-test and rank sum test.
Nasopharyngeal (NP) colonization challenge experiments were performed on mice vaccinated (s.c.) with either M3-1 or M3-2 peptide in alum in comparison to control animals which received alum only. The nasopharyngeal colonization challenge was performed by doing a nasal wash 24 hours after challenge. […]

Experiment [2] relates to anti-M protein antibodies in mouse sera. Briefly: ELISA of sera of mice immunized s.c. with peptide in alum (immunogenicity). Format: in vivo, mice (Swiss Webster). As for the experimental part: as §2, §3
Another experiment deals with GAS M type M3. Briefly: Opsonophagocytosis / bactericidal activity in vitro, GAS M type M3. Format: cell-based, Group A streptococci. The conditions noted are these: for reduction of M3 type bacteria: in vitro versus control; for % CFU reduction: in vitro, GAS M type M3. As for the experimental part: as §1
(§5) Some of the peptides tested in the previous examples were tested for cross-type protection using the methods described above. […] The peptide tested and serotype against which it was tested is indicated.

Another experiment has as its system GAS M type M43. Briefly: Opsonophagocytosis / bactericidal activity in vitro, heterologous GAS M type M43. It is filed as cell-based, Group A streptococci. The conditions noted are these: for reduction of M43 type bacteria: in vitro versus control; for % CFU reduction: in vitro, heterologous GAS M type M43. As for the experimental part: as §1, §5
The subject of experiment [3] is GAS M type M1. Briefly: Opsonophagocytosis / bactericidal activity in vitro, GAS M type M1. It is filed as cell-based, Group A streptococci. Here is the method:
as §1, §5

Experiment [4] relates to GAS M type M1. Briefly: Reduction of colonization in mice, colonizing GAS M type M1. It is filed as in vivo.
The subject of the next experiment is GAS M type M12. Briefly: Opsonophagocytosis / bactericidal activity in vitro, GAS M type M12. Format: cell-based, Group A streptococci. Here is the method: as §1, §5
In another experiment the test system is GAS M type M3 or M43. Briefly: Reduction of colonization in mice, colonizing GAS M type M3 or M43. Format: in vivo. As for the experimental part: as §3, §4
Some of the peptides were tested for reduction of colonization of GAS in mice. […] The peptides were administered together but were not chemically combined in any way. […] Some of the mice were colonized by M3, and some of the mice were colonized by M43.

Take CDARSVNGEFPRHVKLKNEIE [Peptide M3-1]: the “Opsono (in vitro)” value in the experiment with GAS is “opsonophagocytize bacteria more effectively and yes”. Moreover, the “immunoreactivity by ELISA using rabbit sera prepared against whole M protein” value in [1] is given as “confirmed”. The sequence further gave a Reduction of colonization with streptococci (GAS) of 87%. For the same sequence, the “ELISA (elicitation of antibodies)” value in experiment [2] is listed as “yes”. In addition, in the experiment with GAS M type M3, the “reduction of M3 type bacteria” value is “significantly reduce” and the “% CFU reduction” value is listed as 70-90%. In the experiment on GAS M type M43, the “reduction of M43 type bacteria” value is reported as “significantly reduce” and the “% CFU reduction” value is reported as 80-90%.
For the sequence CIRLRHENKDLKARLENAMEV [Peptide M1-3], the “Opsono (in vitro)” value in the experiment on GAS is given as “yes”. Further, in [1], the “immunoreactivity by ELISA using rabbit sera prepared against whole M protein” value was “confirmed”. Further, the “% CFU reduction” value in the experiment with GAS M type M1 [3] is recorded as 80-95%; in the experiment with GAS M type M1 [4], 90% (P < 0.10). Also, the “ELISA (elicitation of antibodies)” value in experiment [2] is recorded as “yes”.
On to CDHSDLVAEKQRLEDLGQKFE [Peptide M12-1], for which, in the experiment with GAS, the “Opsono (in vitro)” value was “yes”. Also, the “immunoreactivity of peptide with anti-M protein rabbit sera (ELISA)” value in experiment [1] was “highest reactivity”. Moreover, in experiment [2], the “ELISA (elicitation of antibodies)” value is listed as “yes”. Besides, in the experiment on GAS M type M12, the “% CFU reduction” value is given as 70-80%.
For the sequence CGEFPRHVKLKNEIENLLDQV [Peptide M3-2], in the experiment on GAS, the “Opsono (in vitro)” value was “yes”. In [1], the “immunoreactivity of peptide with anti-M protein rabbit sera (ELISA)” value is “highest reactivity”. Also, the Reduction of colonization in the experiment on streptococci (GAS) was 67%. Further, the “ELISA (elicitation of antibodies)” value in experiment [2] was “yes”. The “cross-type protection in vivo” value in the experiment with GAS M type M3 or M43 (mice colonized by M3 or M43) is “capable in vivo of cross-type protection”. The “% CFU reduction” value with GAS M type M3 or M43 (mice, colonizing GAS M type M3 or M43, reduction overall) was 67% (P < 0.30). For the same sequence, in the experiment on GAS M type M3, the “reduction of M3 type bacteria” value is on record as “significantly reduce” and the “% CFU reduction” value was 90-95%. In the experiment with GAS M type M43, the “reduction of M43 type bacteria” value was “significantly reduce” and the “% CFU reduction” value is reported as 60-80%.
